Measured values: ChEMBL document CHEMBL1156533 (2007)
Activity calls are given as the source filed them. The calls are words filed in the database; no cut-off is given here.

Tests used:
Mus musculus [1] = species: Mus musculus; assay: Antiasthmatic effect in ovalbumin-challenged BALB/c mouse assessed as decrease in IL13 level in bronchoalveolar lavage fluid by ELISA; assay type: functional, Lung
[2] = Inhibition of IL5 production in transgenic BALB/c mouse TH2 cells at 500 uM after 48 hrs; assay type: functional
Mus musculus [3] = species: Mus musculus; assay: Antiasthmatic effect in ovalbumin-challenged BALB/c mouse assessed as decrease in eosinophil infiltration in bronchoalveolar lavage fluid; assay type: functional, Lung
[4] = Inhibition of IL13 production in transgenic BALB/c mouse TH2 cells at 500 uM after 48 hrs; assay type: functional
Mus musculus [5] = species: Mus musculus; assay: Antiasthmatic effect in ovalbumin-challenged BALB/c mouse assessed as decrease in IL5 level in bronchoalveolar lavage fluid by ELISA; assay type: functional, Lung
[6] = Inhibition of IL4 production in transgenic BALB/c mouse TH2 cells at 500 uM after 48 hrs; assay type: functional
[7] = Inhibition of IL10 production in transgenic BALB/c mouse TH2 cells at 500 uM after 48 hrs; assay type: functional
Dendritic cell = assay: Induction of apoptosis in LPS-stimulated BALB/c mouse bone marrow-derived dendritic cells after 48 hrs by ELISA; assay type: functional, cell-based
[8] = Inhibition of IFN-gamma production in transgenic TH1 cells at 10 uM after 48 hrs; assay type: functional
TH2 [9] = assay: Induction of apoptosis in ovalbumin-challenged transgenic BALB/c mouse TH2 cells transfected in SCID mouse assessed as decrease in viable cell in lungs; assay type: functional, cell-based
[10] = Inhibition of IFN-gamma production in transgenic TH1 cells at 100 uM after 48 hrs; assay type: functional
[11] = target: 3-phosphoinositide-dependent protein kinase 1 (Homo sapiens) (UniProt O15530); assay: Inhibition of PDK1 phosphorylation in human Jurkat cells by Western blotting
Jurkat [12] = assay: Inhibition of TCR-mediated IkappaB degradation in human Jurkat cells after 30 mins by immunoblotting; assay type: cell-based
[13] = Inhibition of IFN-gamma production in transgenic TH1 cells at 500 uM after 48 hrs; assay type: functional
TH1 = assay: Induction of apoptosis in transgenic TH1 cells after 48 hrs by FACS; assay type: functional, cell-based
Mus musculus [14] = assay: Antiasthmatic effect in ovalbumin-challenged transgenic TH2 cells transfected SCID mouse assessed as decrease in IL13 level in bronchoalveolar lavage fluid at 100 ug administered 4-6 hrs after challenge by ELISA; assay type: functional, Lung
[15] = Inhibition of IL5 production in transgenic BALB/c mouse TH2 cells at 50 uM after 48 hrs; assay type: functional
[16] = Inhibition of IL13 production in transgenic BALB/c mouse TH2 cells at 100 uM after 48 hrs; assay type: functional
HEK293 [17] = assay: Inhibition of Bcl10-induced NF-kappaB activation in HEK293 cells by luciferase reporter gene assay; assay type: functional, cell-based; conditions: Homo sapiens
Mus musculus [18] = species: Mus musculus; assay: Antiasthmatic effect in ovalbumin-challenged BALB/c mouse assessed as decrease in IL13 level in bronchoalveolar lavage fluid at 25 ug by ELISA; assay type: functional, Lung
TH2 [19] = assay: Inhibition of TCR-mediated JNK1 activation in transgenic BALB/c mouse TH2 cells at 100 uM by in vitro kinase assay; assay type: cell-based
Mus musculus [20] = species: Mus musculus; assay: Antiasthmatic effect in ovalbumin-challenged BALB/c mouse assessed as decrease in perivascular eosinophil infiltration in bronchoalveolar lavage fluid; assay type: functional, organism-based; conditions: Lung
[21] = Inhibition of IL5 production in transgenic BALB/c mouse TH2 cells at 100 uM after 48 hrs; assay type: functional
[22] = Inhibition of IFN-gamma production in transgenic TH1 cells at 50 uM after 48 hrs; assay type: functional
Mus musculus [23] = species: Mus musculus; assay: Antiasthmatic effect in ovalbumin-challenged BALB/c mouse assessed as decrease in IL5 level in bronchoalveolar lavage fluid at 6 ug by ELISA; assay type: functional, Lung
Mus musculus [24] = species: Mus musculus; assay: Antiasthmatic effect in ovalbumin-challenged BALB/c mouse assessed as decrease in IL5 level in bronchoalveolar lavage fluid at 25 ug by ELISA; assay type: functional, Lung
Jurkat [25] = assay: Inhibition of CD3/CD28-induced NF-kappaB activation in human Jurkat cells by EMSA; assay type: cell-based
[26] = target: 3-phosphoinositide-dependent protein kinase 1 (Homo sapiens) (UniProt O15530); assay: Inhibition of recombinant PDK1 autophosphorylation by in vitro kinase assay
TH2 [27] = assay: Inhibition of TCR-mediated NF-kappaB activation in transgenic BALB/c mouse TH2 cells at 100 uM by EMSA; assay type: cell-based
TH2 [28] = assay: Antiproliferative activity in transgenic BALB/c mouse TH2 cells assessed as [3H]thymidine incorporation after […]; assay type: functional, cell-based
[29] = Inhibition of IL5 production in transgenic BALB/c mouse TH2 cells at 10 uM after 48 hrs; assay type: functional
Jurkat [30] = assay: Inhibition of TCR-mediated ERK activation in human Jurkat cells at 100 uM by Western blotting; assay type: cell-based
[31] = Inhibition of IL4 production in transgenic BALB/c mouse TH2 cells at 50 uM after 48 hrs; assay type: functional
Jurkat [32] = assay: Inhibition of TCR-mediated NF-kappaB activation in human Jurkat cells at 100 uM by EMSA; assay type: cell-based
HEK293 [33] = assay: Inhibition of PKC-theta-induced NF-kappaB activation in HEK293 cells by luciferase reporter gene assay; assay type: functional, cell-based; conditions: Homo sapiens
Mus musculus [34] = assay: Antiasthmatic effect in ovalbumin-challenged transgenic TH2 cells transfected SCID mouse assessed as decrease in IL5 level in bronchoalveolar lavage fluid at 100 ug administered 4-6 hrs after challenge by ELISA; assay type: functional, Lung
Mus musculus [35] = species: Mus musculus; assay: Antiasthmatic effect in ovalbumin-challenged BALB/c mouse assessed as decrease in peribronchial eosinophil infiltration in bronchoalveolar lavage fluid; assay type: functional, organism-based; conditions: Lung
TH2 [36] = assay: Inhibition of TCR-mediated NFAT activation in transgenic BALB/c mouse TH2 cells at 100 uM by Western blotting; assay type: cell-based
Jurkat [37] = assay: Inhibition of TCR-mediated NFAT activation in human Jurkat cells at 100 uM by Western blotting; assay type: cell-based
Mus musculus [38] = assay: Antiasthmatic activity in ovalbumin-challenged BALB/c mouse assessed as reduction in airway hyperresponsiveness at 100 ug, intratracheally administered 4 hrs after challenge; assay type: functional, organism-based
Mus musculus [39] = species: Mus musculus; assay: Antiasthmatic effect in ovalbumin-challenged BALB/c mouse assessed as decrease in IL5 level in bronchoalveolar lavage fluid at 100 ug by ELISA; assay type: functional, Lung
Mus musculus [40] = species: Mus musculus; assay: Antiasthmatic effect in ovalbumin-challenged BALB/c mouse assessed as decrease in IL13 level in bronchoalveolar lavage fluid at 100 ug by ELISA; assay type: functional, Lung
[41] = target: T-cell-specific surface glycoprotein CD28 (Homo sapiens) (UniProt P10747); assay: Inhibition of CD28-induced NF-kappaB activation in human Jurkat cells by EMSA; assay type: functional, cell-based
TH2 [42] = assay: Inhibition of TCR-mediated ERK activation in transgenic BALB/c mouse TH2 cells at 100 uM by Western blotting; assay type: cell-based
Mus musculus [43] = assay: Antiasthmatic effect in ovalbumin-challenged transgenic TH2 cells transfected SCID mouse assessed as decrease in eosinophil infiltration in bronchoalveolar lavage fluid at 100 ug administered 4-6 hrs after challenge; assay type: functional, Lung
[44] = Inhibition of IL13 production in transgenic BALB/c mouse TH2 cells at 50 uM after 48 hrs; assay type: functional
HEK293 [45] = assay: Inhibition of Carma1-induced NF-kappaB activation in HEK293 cells by luciferase reporter gene assay; assay type: functional, cell-based; conditions: Homo sapiens
Mus musculus [46] = assay: Antiasthmatic activity in ovalbumin-challenged BALB/c mouse assessed as reduction in airway resistance at 100 ug, intratracheally administered 4 hrs after challenge; assay type: functional, organism-based
[47] = Inhibition of IL4 production in transgenic BALB/c mouse TH2 cells at 10 uM after 48 hrs; assay type: functional
Mus musculus [48] = species: Mus musculus; assay: Antiasthmatic effect in ovalbumin-challenged BALB/c mouse assessed as decrease in eosinophil infiltration in bronchoalveolar lavage fluid at 25 ug; assay type: functional, Lung
Mus musculus [49] = species: Mus musculus; assay: Antiasthmatic effect in ovalbumin-challenged BALB/c mouse assessed as decrease in IL13 level in bronchoalveolar lavage fluid at 6 ug by ELISA; assay type: functional, Lung
Mus musculus [50] = species: Mus musculus; assay: Antiasthmatic effect in ovalbumin-challenged BALB/c mouse assessed as decrease in eosinophil infiltration in bronchoalveolar lavage fluid at 6 ug; assay type: functional, Lung
[51] = Inhibition of IL10 production in transgenic BALB/c mouse TH2 cells at 10 uM after 48 hrs; assay type: functional
[52] = Inhibition of IL13 production in transgenic BALB/c mouse TH2 cells at 10 uM after 48 hrs; assay type: functional
Jurkat [53] = assay: Induction of apoptosis in human Jurkat cells after 48 hrs by FACS; assay type: functional, cell-based
[54] = Inhibition of IL10 production in transgenic BALB/c mouse TH2 cells at 100 uM after 48 hrs; assay type: functional
[55] = Inhibition of IL4 production in transgenic BALB/c mouse TH2 cells at 100 uM after 48 hrs; assay type: functional
TH2 [56] = assay: Induction of apoptosis in transgenic BALB/c mouse TH2 cells after 48 hrs by FACS; assay type: functional, cell-based
[57] = Inhibition of IL10 production in transgenic BALB/c mouse TH2 cells at 50 uM after 48 hrs; assay type: functional
Mus musculus [58] = species: Mus musculus; assay: Antiasthmatic effect in ovalbumin-challenged BALB/c mouse assessed as decrease in eosinophil infiltration in bronchoalveolar lavage fluid at 100 ug; assay type: functional, Lung
Jurkat [59] = assay: Inhibition of TCR-mediated JNK1 activation in human Jurkat cells at 100 uM by in vitro kinase assay; assay type: cell-based

Chain of 3-phosphoinositide-dependent protein kinase 1 (Homo sapiens) (O15530 whole entry, looked up): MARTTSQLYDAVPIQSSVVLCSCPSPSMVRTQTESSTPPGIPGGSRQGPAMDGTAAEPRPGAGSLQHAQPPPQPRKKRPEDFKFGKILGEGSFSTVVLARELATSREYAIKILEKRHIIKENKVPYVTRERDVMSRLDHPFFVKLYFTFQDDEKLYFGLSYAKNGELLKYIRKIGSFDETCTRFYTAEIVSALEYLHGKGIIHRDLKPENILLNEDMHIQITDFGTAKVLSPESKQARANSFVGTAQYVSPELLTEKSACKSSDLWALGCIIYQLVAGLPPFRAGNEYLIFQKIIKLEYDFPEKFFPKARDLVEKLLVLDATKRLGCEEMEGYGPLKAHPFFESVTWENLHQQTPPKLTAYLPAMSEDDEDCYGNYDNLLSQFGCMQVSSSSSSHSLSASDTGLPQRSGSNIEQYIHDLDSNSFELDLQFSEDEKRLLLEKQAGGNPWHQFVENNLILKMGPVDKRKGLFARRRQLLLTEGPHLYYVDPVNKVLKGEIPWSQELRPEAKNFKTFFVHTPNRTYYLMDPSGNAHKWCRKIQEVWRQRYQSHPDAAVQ
Chain of T-cell-specific surface glycoprotein CD28 (Homo sapiens) (P10747 whole entry): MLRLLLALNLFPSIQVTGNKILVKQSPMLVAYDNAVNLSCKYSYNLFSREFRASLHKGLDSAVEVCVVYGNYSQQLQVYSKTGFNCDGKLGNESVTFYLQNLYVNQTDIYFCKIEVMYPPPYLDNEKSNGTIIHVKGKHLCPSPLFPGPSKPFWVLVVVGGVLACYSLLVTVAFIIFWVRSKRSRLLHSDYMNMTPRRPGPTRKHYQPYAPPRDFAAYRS

`O=C(O)c1cccnc1C(=O)O` [QUINOLINIC ACID] showed an Activity (Mus musculus [1]) of 263 pg/mL, an Activity [2] of 4.19 ng/mL and an Activity (Mus musculus [3]) of 335000. It also gave an Activity [4] of 15.4 ng/mL, an Activity (Mus musculus [5]) of 312 pg/mL and an Activity [6] of 11.3 ng/mL. It also gave an Activity [7] of 8.36 ng/mL.

In the case of `Nc1c(O)cccc1C(=O)O`, the Activity (Mus musculus [1]) was 66 pg/mL, the Activity (Dendritic cell) was “inactive” and the Activity [8] was 29.7 ng/mL. The Activity (TH2 [9]) was “Active”, the Activity [10] was 1.8 ng/mL and the Activity [11] was “Active”. The Activity (Jurkat [12]) was “inactive”, the Activity (Mus musculus [3]) was 155000 and the Activity [13] was 1.7 ng/mL. For the same compound, the Activity (TH1) was “Active”, the Activity (Mus musculus [14]) was <10 pg/mL and the Activity [15] was 1.15 ng/mL. For the same compound, the Activity [16] was 1.7 ng/mL, the Activity (HEK293 [17]) was “inactive” and the Activity (Mus musculus [18]) was 91 pg/mL. For the same compound, the Activity (Mus musculus [5]) was 141 pg/mL, the Activity (TH2 [19]) was “inactive” and the Activity (Mus musculus [20]) was “Active”. For the same compound, the Activity [21] was <0.1 ng/mL, the Activity [22] was 1 ng/mL and the Activity (Mus musculus [23]) was 219 pg/mL. The Activity (Mus musculus [24]) was 144 pg/mL, the Activity (Jurkat [25]) was “Active” and the Activity [26] was “Dose-dependent effect”. For the same compound, the Activity (TH2 [27]) was “Active”, the Activity (TH2 [28]) was “Active” and the Activity [29] was 3.24 ng/mL. For the same compound, the Activity (Jurkat [30]) was “inactive”, the Activity [31] was 6.7 ng/mL and the Activity (Jurkat [32]) was “Active”. For the same compound, the Activity (HEK293 [33]) was “inactive”, the Activity (Mus musculus [34]) was <10 pg/mL and the Activity (Mus musculus [35]) was “Active”. The Activity (TH2 [36]) was “inactive”, the Activity (Jurkat [37]) was “inactive” and the Activity (Mus musculus [38]) was “Active”. The Activity (Mus musculus [39]) was 153 pg/mL, the Activity (Mus musculus [40]) was 88 pg/mL and the Activity [41] was “Active”. The Activity (TH2 [42]) was “inactive”, the Activity (Mus musculus [43]) was 11000 and the Activity [44] was 4.3 ng/mL. For the same compound, the Activity (HEK293 [45]) was “inactive”, the Activity (Mus musculus [46]) was “Active” and the Activity [47] was 11.5 ng/mL. For the same compound, the Activity (Mus musculus [48]) was 58000, the Activity (Mus musculus [49]) was 147 pg/mL and the Activity (Mus musculus [50]) was 190000. The Activity [51] was 7.77 ng/mL, the Activity [52] was 14.9 ng/mL and the Activity (Jurkat [53]) was “Active”. The Activity [54] was 2.37 ng/mL, the Activity [55] was 2 ng/mL and the Activity (TH2 [56]) was “Active”. For the same compound, the Activity [57] was 4.88 ng/mL, the Activity (Mus musculus [58]) was 84000 and the Activity (Jurkat [59]) was “inactive”.
